{"source": "patent US20260284018A1", "about": "“DUAL INHIBITORS OF DYRK1A AND 5-HT2 FOR TREATING A BRAIN DISORDER” (THE REGENTS OF THE UNIVERSITY OF CALIFORNIA, priority 2023, published 2026)", "key": {"PAK1": {"biological_target": "T1, PAK1 (Homo sapiens, UniProt Q13153)", "T1 construct": "purchased Eurofins DiscoverX (KINOMEscan scanEDGE service)", "details": "10 μM; cited from earlier work"}, "ERBB2": {"biological_target": "T2, ERBB2 (Homo sapiens, UniProt P04626)", "T2 construct": "purchased Eurofins DiscoverX", "details": "10 μM; cited from earlier work"}, "PIK3CG": {"biological_target": "T3, PIK3CG (Homo sapiens, UniProt P48736)", "T3 construct": "purchased Eurofins DiscoverX (KINOMEscan scanEDGE service)", "details": "10 μM; cited from earlier work"}, "ULK2": {"biological_target": "T4, ULK2 (Homo sapiens, UniProt Q8IYT8)", "T4 construct": "purchased Eurofins DiscoverX KINOMEscan scanEDGE", "details": "10 μM; cited from earlier work"}, "PIM2": {"biological_target": "T5, PIM2 (Homo sapiens, UniProt Q9P1W9)", "T5 construct": "purchased Eurofins DiscoverX (KINOMEscan scanEDGE service)", "details": "10 μM; cited from earlier work"}, "ADCK3": {"biological_target": "T6, ADCK3 (Homo sapiens, UniProt Q8NI60)", "T6 construct": "purchased Eurofins DiscoverX", "details": "10 μM; cited from earlier work"}, "JNK2 [1]": {"biological_target": "T7, JNK2 (Homo sapiens, UniProt P45984)", "T7 construct": "purchased Eurofins DiscoverX", "T7 sequence (P45984 whole entry)": "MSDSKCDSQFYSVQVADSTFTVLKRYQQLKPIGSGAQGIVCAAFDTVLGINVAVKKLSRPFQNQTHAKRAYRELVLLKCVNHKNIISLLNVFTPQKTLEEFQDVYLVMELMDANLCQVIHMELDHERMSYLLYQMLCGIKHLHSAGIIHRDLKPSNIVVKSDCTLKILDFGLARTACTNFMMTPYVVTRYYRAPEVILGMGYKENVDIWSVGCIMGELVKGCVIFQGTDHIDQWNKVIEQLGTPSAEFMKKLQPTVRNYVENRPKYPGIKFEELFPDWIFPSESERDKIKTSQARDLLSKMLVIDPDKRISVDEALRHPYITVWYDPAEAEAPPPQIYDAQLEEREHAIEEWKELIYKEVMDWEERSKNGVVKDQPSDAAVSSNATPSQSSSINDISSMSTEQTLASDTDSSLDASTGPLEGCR", "details": "10 μM; cited from earlier work"}, "EPHA2": {"biological_target": "T8, EPHA2 (Homo sapiens, UniProt P29317)", "T8 construct": "purchased Eurofins DiscoverX", "details": "10 μM; cited from earlier work"}, "MLK1": {"biological_target": "T9, MLK1 (Homo sapiens, UniProt P80192)", "T9 construct": "purchased Eurofins DiscoverX (KINOMEscan scanEDGE service)", "details": "10 μM; cited from earlier work"}, "ABL1-nonphosphorylated [2]": {"biological_target": "T10, ABL1-nonphosphorylated (Homo sapiens, UniProt P00519)", "T10 construct": "purchased Eurofins DiscoverX", "T10 sequence (P00519 whole entry)": "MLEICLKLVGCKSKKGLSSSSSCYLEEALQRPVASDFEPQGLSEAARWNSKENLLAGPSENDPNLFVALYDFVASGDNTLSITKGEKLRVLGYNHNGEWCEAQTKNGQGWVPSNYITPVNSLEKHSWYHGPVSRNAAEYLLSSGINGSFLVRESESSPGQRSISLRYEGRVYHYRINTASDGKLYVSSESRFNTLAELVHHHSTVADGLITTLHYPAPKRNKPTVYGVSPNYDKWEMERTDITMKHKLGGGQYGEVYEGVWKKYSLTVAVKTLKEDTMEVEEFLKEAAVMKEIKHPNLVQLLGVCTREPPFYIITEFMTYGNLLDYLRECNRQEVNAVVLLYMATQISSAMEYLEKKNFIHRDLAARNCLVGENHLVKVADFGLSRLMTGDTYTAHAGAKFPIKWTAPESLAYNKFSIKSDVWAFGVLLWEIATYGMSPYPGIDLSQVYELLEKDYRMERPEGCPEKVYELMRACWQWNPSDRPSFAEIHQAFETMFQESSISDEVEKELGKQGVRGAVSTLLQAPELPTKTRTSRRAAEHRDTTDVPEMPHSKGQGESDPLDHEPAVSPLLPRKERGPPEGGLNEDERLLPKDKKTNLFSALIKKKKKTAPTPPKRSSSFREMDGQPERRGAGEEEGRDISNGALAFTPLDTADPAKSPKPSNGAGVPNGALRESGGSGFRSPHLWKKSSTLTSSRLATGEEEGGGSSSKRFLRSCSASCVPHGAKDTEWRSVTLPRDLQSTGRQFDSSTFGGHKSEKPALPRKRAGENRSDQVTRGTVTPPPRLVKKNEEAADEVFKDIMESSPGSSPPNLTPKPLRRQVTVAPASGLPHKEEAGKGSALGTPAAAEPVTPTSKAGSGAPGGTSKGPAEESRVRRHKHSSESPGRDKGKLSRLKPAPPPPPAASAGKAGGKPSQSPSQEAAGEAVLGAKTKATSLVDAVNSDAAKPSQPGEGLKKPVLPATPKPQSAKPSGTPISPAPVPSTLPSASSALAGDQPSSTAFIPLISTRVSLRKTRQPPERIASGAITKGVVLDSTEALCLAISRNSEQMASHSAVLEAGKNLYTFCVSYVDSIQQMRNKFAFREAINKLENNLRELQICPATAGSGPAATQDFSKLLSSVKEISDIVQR", "details": "10 μM; cited from earlier work"}, "MEK1": {"biological_target": "T11, MEK1 (Homo sapiens, UniProt Q02750)", "T11 construct": "purchased Eurofins DiscoverX (KINOMEscan scanEDGE service)", "details": "10 μM; cited from earlier work"}, "RET": {"biological_target": "T12, RET (Homo sapiens, UniProt P07949)", "T12 construct": "purchased Eurofins DiscoverX KINOMEscan scanEDGE", "details": "10 μM; cited from earlier work"}, "[3]": {"biological_target": "T13, JAK2(JH1domain-catalytic) (Homo sapiens, UniProt O60674)", "T13 construct": "JAK2(JH1domain-catalytic); purchased Eurofins DiscoverX", "details": "10 μM; cited from earlier work"}, "RAF1": {"biological_target": "T14, RAF1 (Homo sapiens, UniProt P04049)", "T14 construct": "purchased Eurofins DiscoverX KINOMEscan scanEDGE", "details": "10 μM; cited from earlier work"}, "PDGFRB": {"biological_target": "T15, PDGFRB (Homo sapiens, UniProt P09619)", "T15 construct": "purchased Eurofins DiscoverX (KINOMEscan scanEDGE service)", "details": "10 μM; cited from earlier work"}, "INSR": {"biological_target": "T16, INSR (Homo sapiens, UniProt P06213)", "T16 construct": "purchased Eurofins DiscoverX", "details": "10 μM; cited from earlier work"}, "PDGFRA": {"biological_target": "T17, PDGFRA (Homo sapiens, UniProt P16234)", "T17 construct": "purchased Eurofins DiscoverX (KINOMEscan scanEDGE service)", "details": "10 μM; cited from earlier work"}, "MEK2": {"biological_target": "T18, MEK2 (Homo sapiens, UniProt P36507)", "T18 construct": "purchased Eurofins DiscoverX (KINOMEscan scanEDGE service)", "details": "10 μM; cited from earlier work"}, "ROCK2": {"biological_target": "T19, ROCK2 (Homo sapiens, UniProt O75116)", "T19 construct": "purchased Eurofins DiscoverX KINOMEscan scanEDGE", "details": "10 μM; cited from earlier work"}, "BTK": {"biological_target": "T20, BTK (Homo sapiens, UniProt Q06187)", "T20 construct": "purchased Eurofins DiscoverX", "details": "10 μM; cited from earlier work"}, "AKT2": {"biological_target": "T21, AKT2 (Homo sapiens, UniProt P31751)", "T21 construct": "purchased Eurofins DiscoverX", "details": "10 μM; cited from earlier work"}, "PCTK1": {"biological_target": "T22, PCTK1 (Homo sapiens, UniProt Q00536)", "T22 construct": "purchased Eurofins DiscoverX (KINOMEscan scanEDGE service)", "details": "10 μM; cited from earlier work"}, "JNK1": {"biological_target": "T23, JNK1 (Homo sapiens, UniProt P45983)", "T23 construct": "purchased Eurofins DiscoverX", "details": "10 μM; cited from earlier work"}, "MKNK2 [4]": {"biological_target": "T24, MKNK2 (Homo sapiens, UniProt Q9HBH9)", "T24 construct": "purchased Eurofins DiscoverX (KINOMEscan scanEDGE service)", "T24 sequence (Q9HBH9 whole entry)": "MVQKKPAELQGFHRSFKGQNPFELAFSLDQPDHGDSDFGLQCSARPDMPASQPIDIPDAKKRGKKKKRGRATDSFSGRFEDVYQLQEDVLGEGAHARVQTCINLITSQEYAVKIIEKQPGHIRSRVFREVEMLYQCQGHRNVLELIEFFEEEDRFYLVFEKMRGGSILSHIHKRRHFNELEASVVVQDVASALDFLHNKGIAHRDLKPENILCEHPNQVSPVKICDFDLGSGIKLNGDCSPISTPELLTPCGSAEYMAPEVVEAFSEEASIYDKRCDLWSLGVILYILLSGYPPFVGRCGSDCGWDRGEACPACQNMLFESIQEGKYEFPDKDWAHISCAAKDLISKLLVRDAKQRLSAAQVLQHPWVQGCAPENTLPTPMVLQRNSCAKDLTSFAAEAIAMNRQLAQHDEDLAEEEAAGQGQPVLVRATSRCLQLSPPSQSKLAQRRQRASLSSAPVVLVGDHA", "details": "10 μM; cited from earlier work"}, "MAPKAPK2": {"biological_target": "T25, MAPKAPK2 (Homo sapiens, UniProt P49137)", "T25 construct": "purchased Eurofins DiscoverX (KINOMEscan scanEDGE service)", "details": "10 μM; cited from earlier work"}, "PKAC-alpha": {"biological_target": "T26, PKAC-alpha (Homo sapiens, UniProt P17612)", "T26 construct": "purchased Eurofins DiscoverX KINOMEscan scanEDGE", "details": "10 μM; cited from earlier work"}, "AURKB": {"biological_target": "T27, AURKB (Homo sapiens, UniProt Q96GD4)", "T27 construct": "purchased Eurofins DiscoverX", "details": "10 μM; cited from earlier work"}, "PRKCE": {"biological_target": "T28, PRKCE (Homo sapiens, UniProt Q02156)", "T28 construct": "purchased Eurofins DiscoverX KINOMEscan scanEDGE", "T28 sequence (Q02156 whole entry)": "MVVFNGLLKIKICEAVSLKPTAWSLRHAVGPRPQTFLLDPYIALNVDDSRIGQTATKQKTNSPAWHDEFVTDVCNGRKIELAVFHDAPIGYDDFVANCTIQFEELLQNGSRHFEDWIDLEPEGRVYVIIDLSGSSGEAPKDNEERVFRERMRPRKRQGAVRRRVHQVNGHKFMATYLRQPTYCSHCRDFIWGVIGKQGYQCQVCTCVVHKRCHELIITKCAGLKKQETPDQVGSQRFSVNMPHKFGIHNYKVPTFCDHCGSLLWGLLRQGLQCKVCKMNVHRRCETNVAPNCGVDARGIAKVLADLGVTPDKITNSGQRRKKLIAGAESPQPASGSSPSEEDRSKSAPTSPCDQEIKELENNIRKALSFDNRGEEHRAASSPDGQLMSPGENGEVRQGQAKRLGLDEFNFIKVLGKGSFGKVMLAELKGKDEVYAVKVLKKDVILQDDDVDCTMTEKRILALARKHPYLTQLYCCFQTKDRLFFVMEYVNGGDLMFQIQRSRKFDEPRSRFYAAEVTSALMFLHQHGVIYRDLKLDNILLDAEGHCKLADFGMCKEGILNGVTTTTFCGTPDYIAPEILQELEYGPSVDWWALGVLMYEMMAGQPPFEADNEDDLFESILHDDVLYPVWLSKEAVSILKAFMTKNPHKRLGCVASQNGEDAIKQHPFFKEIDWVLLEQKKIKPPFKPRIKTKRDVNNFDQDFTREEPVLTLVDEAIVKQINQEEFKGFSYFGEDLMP", "details": "10 μM; cited from earlier work"}, "IKK-beta": {"biological_target": "T29, IKK-beta (Homo sapiens, UniProt O14920)", "T29 construct": "purchased Eurofins DiscoverX", "details": "10 μM; cited from earlier work"}, "ALK": {"biological_target": "T30, ALK (Homo sapiens, UniProt Q9UM73)", "T30 construct": "purchased Eurofins DiscoverX", "T30 sequence (Q9UM73 19-1620)": "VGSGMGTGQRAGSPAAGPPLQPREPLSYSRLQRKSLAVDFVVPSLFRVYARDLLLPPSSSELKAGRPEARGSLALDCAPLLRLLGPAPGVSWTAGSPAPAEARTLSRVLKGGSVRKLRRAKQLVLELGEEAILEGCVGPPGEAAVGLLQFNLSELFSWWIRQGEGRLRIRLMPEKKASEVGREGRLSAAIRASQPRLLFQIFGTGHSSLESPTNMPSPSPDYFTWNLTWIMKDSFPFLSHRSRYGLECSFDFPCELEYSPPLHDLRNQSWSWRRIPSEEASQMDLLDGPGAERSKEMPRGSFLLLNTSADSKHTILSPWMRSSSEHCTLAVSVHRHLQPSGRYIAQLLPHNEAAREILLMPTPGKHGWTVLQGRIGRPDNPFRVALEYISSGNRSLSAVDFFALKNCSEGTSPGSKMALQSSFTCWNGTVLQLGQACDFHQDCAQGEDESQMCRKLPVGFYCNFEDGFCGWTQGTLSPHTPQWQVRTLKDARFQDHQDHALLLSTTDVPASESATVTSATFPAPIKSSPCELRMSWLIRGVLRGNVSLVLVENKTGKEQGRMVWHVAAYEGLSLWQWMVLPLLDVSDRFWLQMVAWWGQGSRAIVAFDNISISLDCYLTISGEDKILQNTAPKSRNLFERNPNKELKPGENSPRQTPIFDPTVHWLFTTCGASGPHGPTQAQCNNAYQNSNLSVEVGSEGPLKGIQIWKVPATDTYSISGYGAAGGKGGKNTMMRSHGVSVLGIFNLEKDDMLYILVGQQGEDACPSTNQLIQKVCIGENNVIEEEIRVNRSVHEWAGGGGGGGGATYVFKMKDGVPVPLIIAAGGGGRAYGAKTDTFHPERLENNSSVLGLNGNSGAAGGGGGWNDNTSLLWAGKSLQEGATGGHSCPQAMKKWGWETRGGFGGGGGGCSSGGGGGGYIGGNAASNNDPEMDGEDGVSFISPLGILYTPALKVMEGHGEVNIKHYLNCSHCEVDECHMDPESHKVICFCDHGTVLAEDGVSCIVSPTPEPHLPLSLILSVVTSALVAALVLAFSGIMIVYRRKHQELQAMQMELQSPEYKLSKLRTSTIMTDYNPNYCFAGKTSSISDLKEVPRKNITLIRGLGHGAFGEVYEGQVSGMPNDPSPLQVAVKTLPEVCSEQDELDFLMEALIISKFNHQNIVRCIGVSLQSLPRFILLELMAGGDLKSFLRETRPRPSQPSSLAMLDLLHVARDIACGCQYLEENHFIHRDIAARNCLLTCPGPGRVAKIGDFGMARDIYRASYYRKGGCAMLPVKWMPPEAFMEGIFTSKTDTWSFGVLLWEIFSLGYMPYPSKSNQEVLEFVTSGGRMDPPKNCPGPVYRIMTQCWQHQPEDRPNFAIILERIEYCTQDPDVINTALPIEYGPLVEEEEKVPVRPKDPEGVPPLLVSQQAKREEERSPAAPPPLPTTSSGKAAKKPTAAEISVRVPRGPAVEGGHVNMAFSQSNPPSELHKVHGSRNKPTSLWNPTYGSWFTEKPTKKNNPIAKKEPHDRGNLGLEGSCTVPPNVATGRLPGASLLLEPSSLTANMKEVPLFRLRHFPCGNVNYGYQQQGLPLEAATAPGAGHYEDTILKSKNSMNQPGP", "details": "10 μM; cited from earlier work"}, "CDK9": {"biological_target": "T31, CDK9 (Homo sapiens, UniProt P50750)", "T31 construct": "purchased Eurofins DiscoverX", "details": "10 μM; cited from earlier work"}, "ACVR1B": {"biological_target": "T32, ACVR1B (Homo sapiens, UniProt P36896)", "T32 construct": "purchased Eurofins DiscoverX", "T32 sequence (P36896 24-505)": "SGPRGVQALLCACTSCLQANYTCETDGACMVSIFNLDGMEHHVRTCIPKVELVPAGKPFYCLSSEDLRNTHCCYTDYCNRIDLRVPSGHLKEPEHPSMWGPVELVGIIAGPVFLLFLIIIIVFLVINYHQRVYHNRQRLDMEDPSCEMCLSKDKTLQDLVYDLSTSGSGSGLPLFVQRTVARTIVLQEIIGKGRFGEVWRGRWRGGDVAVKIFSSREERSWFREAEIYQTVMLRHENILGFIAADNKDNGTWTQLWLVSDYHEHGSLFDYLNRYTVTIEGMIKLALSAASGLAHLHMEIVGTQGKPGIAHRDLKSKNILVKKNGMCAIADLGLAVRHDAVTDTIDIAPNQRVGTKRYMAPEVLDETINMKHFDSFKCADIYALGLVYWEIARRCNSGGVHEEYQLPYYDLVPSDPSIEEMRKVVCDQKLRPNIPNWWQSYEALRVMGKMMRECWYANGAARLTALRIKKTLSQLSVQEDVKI", "details": "10 μM; cited from earlier work"}, "ABL1-nonphosphorylated [5]": {"biological_target": "T10, ABL1-nonphosphorylated", "assay": "KINOMEscan scanEDGE", "format": "binding", "details": "read-out: Percent Control", "experimental": "(§1) Kinome Scan. Compound HTW_A_8 fumarate was screened against 97 kinases at a single concentration of 10 μM at Eurofins DiscoverX using their KINOMEscan™ scanEDGE assay. The results are reported as the % activity relative to DMSO control, where lower values indicate higher affinity. See Table 1 for the full kinome profile."}, "MKNK2 [6]": {"biological_target": "T24, MKNK2", "assay": "KINOMEscan scanEDGE", "format": "binding", "details": "read-out: Percent Control", "experimental": "as §1"}, "JNK2 [7]": {"biological_target": "T7, JNK2", "assay": "KINOMEscan scanEDGE", "format": "binding", "details": "read-out: Percent Control", "experimental": "as §1"}, "DCAMKL1": {"biological_target": "T33, DCAMKL1 (Homo sapiens, UniProt O15075)", "T33 construct": "purchased Eurofins DiscoverX", "assay": "KINOMEscan scanEDGE", "format": "binding", "details": "read-out: Percent Control", "experimental": "as §1"}, "97 kinases": {"test_system": "97 kinases", "assay": "KINOMEscan scanEDGE, whole panel", "format": "binding", "details": "10 μM", "experimental": "Compounds were screened at 10 μM using the DiscoverX KinomeSCAN™ assay. Results are reported as the % activity relative to the vehicle (i.e., DMSO) control, where lower values indicate higher affinity (see Table 1 for full scan data). The activity of HTW_A_8 fumarate at PIK3CG was minimal (33%) and barely met the threshold for inclusion. […] Data for harmine were obtained from a previous report.\nas §1"}}}
{"smiles": "COc1ccc2c(c1)[nH]c1c(C)nccc12", "note": "[Harmine, harmine]", "values": [{"measurement": "Percent Control", "setting": "PAK1", "value": 73, "unit": "%"}, {"measurement": "Percent Control", "setting": "ERBB2", "value": 85, "unit": "%"}, {"measurement": "Percent Control", "setting": "PIK3CG", "value": 49, "unit": "%"}, {"measurement": "Percent Control", "setting": "ULK2", "value": 89, "unit": "%"}, {"measurement": "Percent Control", "setting": "PIM2", "value": 39, "unit": "%"}, {"measurement": "Percent Control", "setting": "ADCK3", "value": 88, "unit": "%"}, {"measurement": "Percent Control", "setting": "JNK2 [1]", "value": 58, "unit": "%"}, {"measurement": "Percent Control", "setting": "EPHA2", "value": 93, "unit": "%"}, {"measurement": "Percent Control", "setting": "MLK1", "value": 100, "unit": "%"}, {"measurement": "Percent Control", "setting": "ABL1-nonphosphorylated [2]", "value": 90, "unit": "%"}, {"measurement": "Percent Control", "setting": "MEK1", "value": 79, "unit": "%"}, {"measurement": "Percent Control", "setting": "RET", "value": 91, "unit": "%"}, {"measurement": "Percent Control", "setting": "[3]", "value": 92, "unit": "%"}, {"measurement": "Percent Control", "setting": "RAF1", "value": 89, "unit": "%"}, {"measurement": "Percent Control", "setting": "PDGFRB", "value": 84, "unit": "%"}, {"measurement": "Percent Control", "setting": "INSR", "value": 100, "unit": "%"}, {"measurement": "Percent Control", "setting": "PDGFRA", "value": 90, "unit": "%"}, {"measurement": "Percent Control", "setting": "MEK2", "value": 96, "unit": "%"}, {"measurement": "Percent Control", "setting": "ROCK2", "value": 43, "unit": "%"}, {"measurement": "Percent Control", "setting": "BTK", "value": 100, "unit": "%"}, {"measurement": "Percent Control", "setting": "AKT2", "value": 80, "unit": "%"}, {"measurement": "Percent Control", "setting": "PCTK1", "value": 100, "unit": "%"}, {"measurement": "Percent Control", "setting": "JNK1", "value": 41, "unit": "%"}, {"measurement": "Percent Control", "setting": "MKNK2 [4]", "value": 22, "unit": "%"}, {"measurement": "Percent Control", "setting": "MAPKAPK2", "value": 72, "unit": "%"}, {"measurement": "Percent Control", "setting": "PKAC-alpha", "value": 88, "unit": "%"}, {"measurement": "Percent Control", "setting": "AURKB", "value": 80, "unit": "%"}, {"measurement": "Percent Control", "setting": "PRKCE", "value": 91, "unit": "%"}, {"measurement": "Percent Control", "setting": "IKK-beta", "value": 95, "unit": "%"}, {"measurement": "Percent Control", "setting": "ALK", "value": 92, "unit": "%"}, {"measurement": "Percent Control", "setting": "CDK9", "value": 67, "unit": "%"}, {"measurement": "Percent Control", "setting": "ACVR1B", "value": 91, "unit": "%"}]}
{"smiles": "COc1ccc2c3ccnc(C)c3n(CCN(C)C)c2c1.O=C(O)/C=C/C(=O)O", "note": "[HTW_A_8 fumarate, 2-(7-methoxy-1-methyl-9H-pyrido[3,4-b]indol-9-yl)-N,N-dimethylethan-1-amine Fumarate Salt (2:3)]", "values": [{"measurement": "remaining binding at 10 µM", "setting": "ABL1-nonphosphorylated [5]", "value": 79, "unit": "%"}, {"measurement": "remaining binding at 10 µM", "setting": "MKNK2 [6]", "value": 100, "unit": "%"}, {"measurement": "remaining binding at 10 µM", "setting": "JNK2 [7]", "value": 81, "unit": "%"}, {"measurement": "remaining binding at 10 µM", "setting": "DCAMKL1", "value": 98, "unit": "%"}, {"measurement": "activity at other kinases of the LIPID family (besides PIK3CG)", "setting": "97 kinases", "value": "did not exhibit activity for any other kinase in the LIPID family"}, {"measurement": "kinase family selectivity", "setting": "97 kinases; 97 kinases", "value": "selective for kinases in the CMGC family"}]}
